Results taken from patent US20250154212A1, “METHOD OF DISRUPTING MEMORY AND LIPOPEPTIDE FOR USE IN SUCH METHOD” (The Research Foundation for The State University of New York, priority 2023, published 2025).
pIC50: −log10 of the molar value. Entries after “also recorded” stand apart in the source; their conditions may differ. Where no end group is shown, it is not given here. The star is where a group is joined. Myristoyl = CCCCCCCCCCCCCC(=O)*

Target: T1, KIBRA-PKMζ interaction (Homo sapiens, UniProt Q05513)
T1 construct: expressed in transfected cells; host or cells: HEK293T
T1 sequence (Q05513 1-409 isoform Q05513-2): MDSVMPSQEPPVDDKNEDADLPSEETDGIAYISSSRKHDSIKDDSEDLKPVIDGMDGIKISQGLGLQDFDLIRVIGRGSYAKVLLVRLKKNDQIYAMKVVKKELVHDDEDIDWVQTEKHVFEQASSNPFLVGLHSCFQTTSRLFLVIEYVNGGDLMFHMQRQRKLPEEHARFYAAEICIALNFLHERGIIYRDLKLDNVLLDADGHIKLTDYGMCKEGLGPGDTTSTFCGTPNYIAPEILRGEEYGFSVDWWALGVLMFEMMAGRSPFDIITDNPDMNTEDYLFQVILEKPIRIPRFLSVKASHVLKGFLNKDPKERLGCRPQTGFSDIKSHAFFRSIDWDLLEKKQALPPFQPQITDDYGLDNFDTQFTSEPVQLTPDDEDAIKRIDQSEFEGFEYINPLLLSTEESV
Assay: BiFC (split-Venus) assay of KIBRA-PKMζ interaction in transfected HEK293T cells
Type: cell-based
Settings: for effect on KIBRA-PKMζ interaction/dimerization (BiFC): 10 μM
Protocol: KIBRA-PKMζ BiFC was performed as previously described (28), using pVen1-FLAG-KIBRA and pVen2-HA-PKMζ, in which PKMζ was cloned between EcoR1 and BamH1 sites. The constructs pVen1 and pVen2 encode the N-terminus (amino acids 1-154) and C-terminus (amino acids 155-238) of the Venus protein, respectively, and the Venus fragments were on the N-terminal of the fusion proteins. pVen2-HA-PKMζ[PKCι/λ-P291Q;F297S] was generated by site-directed mutagenesis using forward-cctggagAagcAAatceggatcccccggtCcctgtccgte and reverse-gacggacaggGaccgggggatccggatTTgctTctccagg primers and the QuickChange II XL Site-Directed Mutagenesis Kit (Agilent Technologies), following manufacturer's instructions. Additional pVen2-HA-PKC isoforms and pVen2-HA-CaMKIIα in the pVen2-HA vector were generated by cloning the N-terminus of the coding sequence of each kinase (table S1) to obtain an in-frame fusion at the C-terminus of the pVen2-HA. Human versions of KIBRA and kinases were used, and all PCR amplified sequences and constructs were verified by DNA sequencing.
HEK293T cells were cultured in Dulbecco's Modified Eagle's Medium supplemented with 10% heat-inactivated fetal bovine serum, 100 U/ml penicillin, […] streptomycin, 2 mM glutamine, and 10 mM HEPES in a T75 tissue culture flask with canted neck and ventilated cap. Twenty-four hours prior to transfection, 1×10^5 HEK293T cells in 1 ml of media were plated on poly-D-lysine-treated coverslips in 24-well plates. One hour prior to transfection, 0.5 ml of the media was removed from each well, and ζ-stat or K-ZAP was added to the media that had been removed. The remaining media in each well was then discarded and substituted with the 0.5 ml pre-conditioned media containing ζ-stat or K-ZAP at designated concentrations. For transfection a total of 50 ng of DNA was delivered to each well using Lipofectamine 3000 (Invitrogen) and OptiMEM 1× reduced serum medium (Invitrogen) at a plasmid-to-plasmid ratio of 1:1. The amount of transfected DNA was optimized to produce relatively low concentrations of proteins during overexpression. […]

Row | Molecule | effect on KIBRA-PKMζ interaction/dimerization (BiFC) (listed as z-stat) | pIC50 (dose-response curve, n's=4, read-out: IC50 for inhibition of KIBRA-PKMζ interaction (BiFC)) | effect on KIBRA-PKMζ interaction/dimerization (BiFC)
1 | O=S(=O)(O)c1cc(O)c2c(S(=O)(=O)O)cc(S(=O)(=O)O)cc2c1 [ζ-stat, 1-naphthol-3,6,8-trisulphonic acid] | inhibits KIBRA interaction with PKMz; also recorded: decreases BIFC | ~6.00 | –
2 | myr-N-FVRNSLERRSVRMKRPS-C (Myristoyl-FVRNSLERRSVRMKRPS) [K-ZAP] | – | – | inhibits PKMz-KIBRA dimerization
